Values after ≈ are worked out from the molar mass of the structure shown.
Tests used:
Format in all cases: cell-based
[1] = tested on: Staphylococcus epidermidis IFO 12993; test: in vitro antibacterial activity, agar plate dilution method (MIC); conditions: IFO12993, read-out: Antimicrobial spectrum MIC
Description: (§1) The in vitro antibacterial activities of the compounds provided by the present invention were tested by a standard method of Chemotherapy Society of Japan, i.e. an agar plate dilution method disclosed in CHEMOTHERAPY Vol. 29, pages 76–79, 1981, and the activities of them on anaerobic bacteria were tested by a method disclosed in CHEMOTHERAPY Vol. 27, 559–590, 1979. The results were shown in terms of the minimum inhibition concentration (MIC, μg/ml) for the growth of the bacteria.

[2] = tested on: Streptococcus pneumoniae IID 553; test: as above; conditions: IID553, read-out: Antimicrobial spectrum MIC
Description: as §1

[3] = tested on: Micrococcus luteus KI 3122; test: as above; conditions: KI3122, read-out: Antimicrobial spectrum MIC
Description: as §1

[4] = tested on: Bacillus subtilis JCM 2499; test: as above; conditions: JCM2499, read-out: Antimicrobial spectrum MIC
Description: as §1

[5] = tested on: Enterococcus faecalis CSJ 1212; test: as above; conditions: CSJ1212, read-out: Antimicrobial spectrum MIC
Description: as §1

[6] = tested on: Pseudomonas aeruginosa CSJ 1853; test: as above; conditions: CSJ1853, read-out: Antimicrobial spectrum MIC
Description: as §1

[7] = tested on: Escherichia coli IFO 12734; test: as above; conditions: IFO12734, read-out: Antimicrobial spectrum MIC
Description: as §1

[8] = tested on: Staphylococcus aureus JCM 2874; test: as above; conditions: JCM2874, read-out: Antimicrobial spectrum MIC
Description: as §1

[9] = tested on: Klebsiella pneumoniae IID 865; test: as above; conditions: IID865, read-out: Antimicrobial spectrum MIC
Description: as §1

[10] = tested on: Haemophilus influenzae IID 984; test: as above; conditions: IID984, read-out: Antimicrobial spectrum MIC
Description: as §1

[11] = tested on: Enterococcus faecalis RIMD 3116001; test: as above; conditions: RIMD3116001, read-out: Antimicrobial spectrum MIC
Description: as §1

[12] = tested on: Branhamella catarrhalis IID 5233; test: as above; conditions: Moraxella catarrhalis, IID5233, read-out: Antimicrobial spectrum MIC
Description: as §1

[13] = tested on: Staphylococcus aureus IFO 13276; test: as above; conditions: IFO13276, read-out: Antimicrobial spectrum MIC
Description: as §1

[14] = tested on: Staphylococcus aureus IID 803(Smith); test: as above; conditions: IID803, read-out: Antimicrobial spectrum MIC
Description: as §1

[15] = tested on: Staphylococcus aureus Clin-211(MRSA); test: as above; conditions: read-out: Antimicrobial spectrum MIC
Description: as §1

[16] = tested on: Bacteroides fragilis GAI 0675; test: in vitro antibacterial activity on anaerobic bacteria (MIC); conditions: GAI0675; Bacteroides fragilis GAI 0675, anaerobic; read-out: Antimicrobial spectrum MIC
Description: as §1

[17] = tested on: Bacteroides thetaiotaomicron ATCC 29741; test: as above; conditions: ATCC29741; Bacteroides thetaiotaomicron ATCC 29741, anaerobic; read-out: Antimicrobial spectrum MIC
Description: as §1

[18] = tested on: Propionibacterium acnes JCM 6425; test: as above; conditions: Cutibacterium acnes, JCM6425; Propionibacterium acnes JCM 6425, anaerobic; read-out: Antimicrobial spectrum MIC
Description: as §1

| MIC [1] | MIC [2] | MIC [3] | MIC [4] | MIC [5] | MIC [6] | MIC [7] | MIC [8] | MIC [9] | MIC [10] | MIC [11] | MIC [12] | MIC [13] | MIC [14] | MIC [15] | MIC [16] | MIC [17] | MIC [18] | Structure (SMILES) |
| --- | --- | --- | --- | --- | --- | --- | --- | --- | --- | --- | --- | --- | --- | --- | --- | --- | --- | --- |
| 0.063 mg/L (≈ 0.181 µM) | 0.125 mg/L (≈ 0.359 µM) | 0.5 mg/L (≈ 1.44 µM) | 0.016 mg/L (≈ 0.0459 µM) | 0.25 mg/L (≈ 0.718 µM) | 0.5 mg/L (≈ 1.44 µM) | 0.063 mg/L (≈ 0.181 µM) | 0.031 mg/L (≈ 0.089 µM) | 0.008 mg/L (≈ 0.023 µM) | 0.016 mg/L (≈ 0.0459 µM) | 0.25 mg/L (≈ 0.718 µM) | 0.063 mg/L (≈ 0.181 µM) | 0.031 mg/L (≈ 0.089 µM) | 0.031 mg/L (≈ 0.089 µM) | 0.5 mg/L (≈ 1.44 µM) | 0.25 mg/L (≈ 0.718 µM) | 0.5 mg/L (≈ 1.44 µM) | 0.125 mg/L (≈ 0.359 µM) | Cc1c(-c2ccc(CN)cc2)ccn2c(=O)c(C(=O)O)cc(C3CC3)c12 [Example 24, 8-(4-aminomethylphenyl)-1-cyclopropyl-9-methyl-4-oxo-4H-quinolizine-3-carboxylic acid] |
| 0.016 mg/L (≈ 0.0479 µM) | 0.25 mg/L (≈ 0.748 µM) | 0.125 mg/L (≈ 0.374 µM) | ≤ 0.004 mg/L | 0.125 mg/L (≈ 0.374 µM) | 0.25 mg/L (≈ 0.748 µM) | 0.125 mg/L (≈ 0.374 µM) | 0.008 mg/L (≈ 0.0239 µM) | 0.008 mg/L (≈ 0.0239 µM) | 0.016 mg/L (≈ 0.0479 µM) | 0.25 mg/L (≈ 0.748 µM) | 0.016 mg/L (≈ 0.0479 µM) | 0.008 mg/L (≈ 0.0239 µM) | 0.008 mg/L (≈ 0.0239 µM) | 0.125 mg/L (≈ 0.374 µM) | 0.125 mg/L (≈ 0.374 µM) | 0.25 mg/L (≈ 0.748 µM) | 0.063 mg/L (≈ 0.188 µM) | Cc1c(-c2cccc(N)c2)ccn2c(=O)c(C(=O)O)cc(C3CC3)c12 [Example 26, 8-(3-aminophenyl)-1-cyclopropyl-9-methyl-4-oxo-4H-quinolizine-3-carboxylic acid] |
| 0.008 mg/L (≈ 0.0239 µM) | 0.125 mg/L (≈ 0.374 µM) | 0.063 mg/L (≈ 0.188 µM) | ≤ 0.004 mg/L | 0.031 mg/L (≈ 0.0927 µM) | 0.25 mg/L (≈ 0.748 µM) | 0.063 mg/L (≈ 0.188 µM) | ≤ 0.004 mg/L | ≤ 0.004 mg/L | 0.008 mg/L (≈ 0.0239 µM) | 0.063 mg/L (≈ 0.188 µM) | ≤ 0.004 mg/L | ≤ 0.004 mg/L | ≤ 0.004 mg/L | 0.031 mg/L (≈ 0.0927 µM) | 0.031 mg/L (≈ 0.0927 µM) | 0.125 mg/L (≈ 0.374 µM) | 0.031 mg/L (≈ 0.0927 µM) | Cc1c(-c2ccc(N)cc2)ccn2c(=O)c(C(=O)O)cc(C3CC3)c12 [Example 27, 8-(4-Aminophenyl)-1-cyclopropyl-9-methyl-4-oxo-4H-quinolizine-3-carboxylic acid] |
| 0.031 mg/L (≈ 0.0858 µM) | 0.25 mg/L (≈ 0.692 µM) | 0.25 mg/L (≈ 0.692 µM) | ≤ 0.004 mg/L | 0.125 mg/L (≈ 0.346 µM) | 2 mg/L (≈ 5.53 µM) | 0.25 mg/L (≈ 0.692 µM) | 0.008 mg/L (≈ 0.0221 µM) | 0.031 mg/L (≈ 0.0858 µM) | 0.25 mg/L (≈ 0.692 µM) | 0.25 mg/L (≈ 0.692 µM) | 0.031 mg/L (≈ 0.0858 µM) | 0.008 mg/L (≈ 0.0221 µM) | 0.008 mg/L (≈ 0.0221 µM) | 0.125 mg/L (≈ 0.346 µM) | 0.125 mg/L (≈ 0.346 µM) | 0.25 mg/L (≈ 0.692 µM) |  | CC(=O)c1ccc(-c2ccn3c(=O)c(C(=O)O)cc(C4CC4)c3c2C)cc1 [Example 28, 8-(4-Acetylphenyl)-1-cyclopropyl-9-methyl-4-oxo-4H-quinolizine-3-carboxylic acid] |
| 0.016 mg/L (≈ 0.048 µM) | 0.5 mg/L (≈ 1.5 µM) | 0.125 mg/L (≈ 0.375 µM) | ≤ 0.004 mg/L | 0.25 mg/L (≈ 0.75 µM) | 0.5 mg/L (≈ 1.5 µM) | 0.125 mg/L (≈ 0.375 µM) | 0.008 mg/L (≈ 0.024 µM) | 0.031 mg/L (≈ 0.093 µM) | 0.125 mg/L (≈ 0.375 µM) | 0.5 mg/L (≈ 1.5 µM) | 0.031 mg/L (≈ 0.093 µM) | 0.008 mg/L (≈ 0.024 µM) | 0.008 mg/L (≈ 0.024 µM) | 0.125 mg/L (≈ 0.375 µM) | 0.25 mg/L (≈ 0.75 µM) | 1 mg/L (≈ 3 µM) | 0.25 mg/L (≈ 0.75 µM) | Cc1ccc(-c2ccn3c(=O)c(C(=O)O)cc(C4CC4)c3c2C)cc1 [Example 31, 1-Cyclopropyl-9-methyl-4-oxo-8-p-tolyl-4H-quinolizine-3-carboxylic acid] |
